Among the data in ChEMBL document CHEMBL4033623, “Synthesis of xanthone derivatives and studies on the inhibition against cancer cells growth and synergistic combinations of them” (Eur J Med Chem, 2017) are Activity, IC50 and viability values, retold here.

For assay [1], the system named is MDA-MB-231. The assay is described as follows: Induction of apoptosis in human MDA-MB-231 cells assessed as late apoptotic cells at 0.4 uM after 48 hrs by Annexin-V/FITC/PI staining based flow cytometry (reference value: 1.50 %). The assay is classed as functional. (In general: In flow cytometry, cells or beads pass a laser one at a time.)
In assay [2] the test system is COLO 320. The assay is described as follows: Synergistic antiproliferative activity against human COLO320 cells at compound to DMXAA mol ratio of 1:1 after 48 hrs by CCK8 assay. The assay is classed as functional, cell-based. The settings on record: COLO 320, 48 h. (In general: Formazan colour is commonly taken as a measure of viable cells.)
The subject of assay [3] is MDA-MB-231. Nature of the assay: Synergistic cell cycle arrest in human MDA-MB-231 cells assessed as accumulation at S phase 0.2 to 0.8 uM after 48 hrs in presence of DMXAA by propidium iodide staining based flow cytometric method relative to control. Format: functional.
For assay [4], the system named is MDA-MB-231. The assay is described as follows: Synergistic induction of apoptosis in human MDA-MB-231 cells assessed as viable cells at 0.4 uM after 48 hrs in presence of DMXAA by Annexin-V/FITC/PI staining based flow cytometry (reference value: 99.95 %). The assay is classed as functional. To be noted: MDA-MB-231, 48 h, read-out: Activity.
Assay [5] relates to MDA-MB-231. Nature of the assay: Induction of apoptosis in human MDA-MB-231 cells assessed as viable cells at 0.8 uM after 48 hrs by Annexin-V/FITC/PI staining based flow cytometry (reference value: 96.51 %). Format: functional. To be noted: MDA-MB-231, 48 h, read-out: Activity.
The test system of assay [6] is MDA-MB-231. Nature of the assay: Synergistic induction of apoptosis in human MDA-MB-231 cells assessed as late apoptotic cells at 0.2 uM after 48 hrs in presence of DMXAA by Annexin-V/FITC/PI staining based flow cytometry (reference value: 0.00 %). The assay is classed as functional.
For assay [7], the system named is MDA-MB-231. Nature of the assay: Synergistic induction of apoptosis in human MDA-MB-231 cells assessed as late apoptotic cells at 0.4 uM after 48 hrs in presence of DMXAA by Annexin-V/FITC/PI staining based flow cytometry (reference value: 0.00 %). The assay is classed as functional.
In assay [8] the test system is MDA-MB-231. Nature of the assay: Decrease in caspase-3 level in human MDA-MB-231 cells at 0.2 to 0.8 uM after 48 hrs by Western blot analysis. The assay is classed as functional, cell-based. In general terms: In western blotting, separated proteins are transferred to a membrane and probed.
In assay [9] the test system is MDA-MB-231. Nature of the assay: Synergistic induction of apoptosis in human MDA-MB-231 cells assessed as necrotic cells at 0.2 uM after 48 hrs in presence of DMXAA by Annexin-V/FITC/PI staining based flow cytometry (reference value: 0.00 %). Format: functional.
Assay [10] relates to MDA-MB-231. Nature of the assay: Synergistic induction of apoptosis in human MDA-MB-231 cells assessed as decrease in caspase-3 level at 0.1 to 0.5 uM after 48 hrs in presence of DMXAA by Western blot analysis. The assay is classed as functional, cell-based.
Assay [11] deals with MDA-MB-231. Nature of the assay: Decrease in caspase-9 level in human MDA-MB-231 cells at 0.2 to 0.8 uM after 48 hrs by Western blot analysis. The assay is classed as functional, cell-based.
Assay [12] concerns MDA-MB-231. Nature of the assay: Induction of apoptosis in human MDA-MB-231 cells assessed as viable cells at 0.2 uM after 48 hrs by Annexin-V/FITC/PI staining based flow cytometry (reference value: 96.51 %). Format: functional. The settings on record: MDA-MB-231, 48 h, read-out: Activity.
The subject of assay [13] is MDA-MB-231. The assay is described as follows: Induction of apoptosis in human MDA-MB-231 cells assessed as increase in cleaved caspase-3 expression at 0.2 to 0.8 uM after 48 hrs by Western blot analysis. Format: functional, cell-based.
For assay [14], the system named is MDA-MB-231. The assay is described as follows: Antiproliferative activity against human MDA-MB-231 cells after 48 hrs by CCK8 assay. Format: functional, cell-based. To be noted: MDA-MB-231, 48 h.
Assay [15] concerns MDA-MB-231. Nature of the assay: Synergistic antiproliferative activity against human MDA-MB-231 cells at compound to DMXAA mol ratio of 1:1 after 48 hrs by CCK8 assay. To be noted: MDA-MB-231, 48 h. The assay is classed as functional, cell-based.
Assay [16] relates to MDA-MB-231. Nature of the assay: Synergistic induction of apoptosis in human MDA-MB-231 cells assessed as viable cells at 0.2 uM after 48 hrs in presence of DMXAA by Annexin-V/FITC/PI staining based flow cytometry (reference value: 99.95 %). The assay is classed as functional. To be noted: MDA-MB-231, 48 h, read-out: Activity.
The test system of assay [17] is HepG2. The assay is described as follows: Antiproliferative activity against human HepG2 cells after 48 hrs by CCK8 assay. Format: functional, cell-based. The settings on record: HepG2, 48 h.
For assay [18], the system named is MDA-MB-231. The assay is described as follows: Synergistic induction of apoptosis in human MDA-MB-231 cells assessed as late apoptotic cells at 0.8 uM after 48 hrs in presence of DMXAA by Annexin-V/FITC/PI staining based flow cytometry (reference value: 0.00 %). Format: functional.
Assay [19] has as its system MDA-MB-231. Nature of the assay: Synergistic induction of apoptosis in human MDA-MB-231 cells assessed as viable cells at 0.8 uM after 48 hrs in presence of DMXAA by Annexin-V/FITC/PI staining based flow cytometry (reference value: 99.95 %). Format: functional. The settings on record: MDA-MB-231, 48 h, read-out: Activity.

pIC50: −log10 of the molar value. Activity calls are given as the source filed them. No cut-off for these calls is given here.

What is called pIC50 is −log10 of the IC50, conventionally taken in molar units. Regarding `O=c1c2cc(Br)ccc2oc2cc(O)cc(O)c12`, the Activity in assay [1] is 11.53%; in assay [3], 26.5%; in [6], 10.2%; in assay [7], 26.7%; in assay [9], 38.43%; in [18], 34.65%. Also, the pIC50 in assay [2] was 5.29; in assay [14], 6.34; in assay [15], 7.38; in assay [17] it was 5.04. In assay [4], the viability at 0.4 µM amounted to 46.3%. Besides, the values for the viability at 0.8 µM in assay [5] and in assay [19] were 39.1% and 41.1%, respectively. The outcome in [8], in assay [10], in assay [11] and in assay [13] was Active. Moreover, the viability at 0.2 µM was determined as 79.2% in assay [12] and 48.6% in [16].
